# Columns and labels:
# [1] = tested on: HT-29; assay: Cytotoxicity against human HT-29 cells after 48 hrs by MTT assay; assay type: functional, cell-based; conditions: HT-29, 48 h
# [2] = Cytotoxicity against human DU145 cells after 48 hrs by MTT assay; assay type: functional, cell-based; conditions: DU-145, 48 h
# [3] = tested on: A549; assay: cells; conditions: Homo sapiens, A549, 48 h
# Description: Cytotoxicity against human A549 cells after 48 hrs by MTT assay
# [4] = tested on: MCF7; assay: cells; conditions: Homo sapiens, MCF7, 48 h
# Description: Cytotoxicity against human MCF7 cells after 48 hrs by MTT assay
# [5] = tested on: HepG2; assay: cells; conditions: Homo sapiens, HepG2, 48 h
# Description: Cytotoxicity against human HepG2 cells after 48 hrs by MTT assay
# [6] = tested on: HT-29; assay: Cell cycle arrest in human HT-29 cells assessed as accumulation at sub G1 phase at 10 nM after 48 hrs by propidium iodide staining based flow cytometry (reference value: 1.00%); assay type: functional
# [7] = tested on: HT-29; assay: Cell cycle arrest in human HT-29 cells assessed as accumulation at sub G1 phase at 50 nM after 48 hrs by propidium iodide staining based flow cytometry (reference value: 1.00%); assay type: functional
# [8] = tested on: HT-29; assay: Cell cycle arrest in human HT-29 cells assessed as accumulation at G0/G1 phase at 10 nM after 48 hrs by propidium iodide staining based flow cytometry (reference value: 83.01%); assay type: functional
# [9] = tested on: HT-29; assay: Cell cycle arrest in human HT-29 cells assessed as accumulation at G0/G1 phase at 50 nM after 48 hrs by propidium iodide staining based flow cytometry (reference value: 83.01%); assay type: functional
# [10] = tested on: HT-29; assay: Cell cycle arrest in human HT-29 cells assessed as accumulation at S phase at 10 nM after 48 hrs by propidium iodide staining based flow cytometry (reference value: 3.02%); assay type: functional
# [11] = tested on: HT-29; assay: Cell cycle arrest in human HT-29 cells assessed as accumulation at S phase at 50 nM after 48 hrs by propidium iodide staining based flow cytometry (reference value: 3.02%); assay type: functional
# [12] = tested on: HT-29; assay: Cell cycle arrest in human HT-29 cells assessed as accumulation at G2/M phase at 10 nM after 48 hrs by propidium iodide staining based flow cytometry (reference value: 12.47%); assay type: functional
# [13] = tested on: HT-29; assay: Cell cycle arrest in human HT-29 cells assessed as accumulation at G2/M phase at 50 nM after 48 hrs by propidium iodide staining based flow cytometry (reference value: 12.47%); assay type: functional
# [14] = target: Tubulin (Sus scrofa, UniProt P02554+P02550); assay: Inhibition of porcine brain tubulin polymerization after 1 hr by fluorescence assay
# [15] = tested on: HT-29; assay: Induction of apoptosis in human HT-29 cells assessed as reduction in mitochondrial membrane potential at 10 nM after 48 hrs by JC-1 staining based flow cytometry (reference value: 94.3%); assay type: functional; set-up: scale not given: the % may be the effect or the level left
# [16] = tested on: HT-29; assay: Induction of apoptosis in human HT-29 cells assessed as reduction in mitochondrial membrane potential at 50 nM after 48 hrs by JC-1 staining based flow cytometry (reference value: 94.3%); assay type: functional; set-up: scale not given: the % may be the effect or the level left
# [17] = tested on: HT-29; assay: Induction of apoptosis in human HT-29 cells assessed as necrotic cells at 10 nM after 48 hrs by Annexin V-FITC/PI staining based flow cytometry (Rvb=0.82%); assay type: functional
# [18] = tested on: HT-29; assay: Induction of apoptosis in human HT-29 cells assessed as necrotic cells at 50 nM after 48 hrs by Annexin V-FITC/PI staining based flow cytometry (Rvb=0.82%); assay type: functional
# [19] = tested on: HT-29; assay: Induction of apoptosis in human HT-29 cells assessed as late apoptotic cells at 10 nM after 48 hrs by Annexin V-FITC/PI staining based flow cytometry (Rvb=4.06%); assay type: functional
# [20] = tested on: HT-29; assay: Induction of apoptosis in human HT-29 cells assessed as late apoptotic cells at 50 nM after 48 hrs by Annexin V-FITC/PI staining based flow cytometry (Rvb=4.06%); assay type: functional
# [21] = tested on: HT-29; assay: Induction of apoptosis in human HT-29 cells assessed as viable cells at 10 nM after 48 hrs by Annexin V-FITC/PI staining based flow cytometry (Rvb=93.82%); assay type: functional; conditions: HT-29, 48 h, read-out: Activity
# [22] = tested on: HT-29; assay: Induction of apoptosis in human HT-29 cells assessed as viable cells at 50 nM after 48 hrs by Annexin V-FITC/PI staining based flow cytometry (Rvb=93.82%); assay type: functional; conditions: HT-29, 48 h, read-out: Activity
# [23] = tested on: HT-29; assay: Induction of apoptosis in human HT-29 cells assessed as early apoptotic cells at 10 nM after 48 hrs by Annexin V-FITC/PI staining based flow cytometry (Rvb=1.30%); assay type: functional
# [24] = tested on: HT-29; assay: Induction of apoptosis in human HT-29 cells assessed as early apoptotic cells at 50 nM after 48 hrs by Annexin V-FITC/PI staining based flow cytometry (Rvb=1.30%); assay type: functional
Compound,IC50 [1] [µM],IC50 [2] [µM],IC50 [3] [µM],IC50 [4] [µM],IC50 [5] [µM],also measured
C=C(c1ccc(OC)c(/C=C2/C(=O)Nc3cc(Br)ccc32)c1)c1cc(OC)c(OC)c(OC)c1,8.32,20.7,12.6,21,10.5,–
COc1ccc(C(=O)c2cc(OC)c(OC)c(OC)c2)cc1/C=C1/C(=O)Nc2ccccc21,2.73,26.8,6.7,10.7,3.8,–
COc1ccc(C(=O)c2cc(OC)c(OC)c(OC)c2)cc1/C=C1/C(=O)Nc2ccc(Cl)cc21,3.23,29.2,9.66,14.2,2.51,–
C=C(c1ccc(OC)c(/C=C2/C(=O)Nc3ccc(Br)cc32)c1)c1cc(OC)c(OC)c(OC)c1,5.62,19.1,7.43,18.2,8.32,–
C=C(c1ccc(OC)c(/C=C2/C(=O)Nc3ccc(OC)cc32)c1)c1cc(OC)c(OC)c(OC)c1,0.107,5.04,1.48,3.16,0.897,–
C=C(c1ccc(OC)c(/C=C2/C(=O)Nc3ccc(F)cc32)c1)c1cc(OC)c(OC)c(OC)c1,0.081,3.13,1.17,3.98,0.084,–
COc1ccc(C(=O)c2cc(OC)c(OC)c(OC)c2)cc1/C=C1/C(=O)Nc2ccc(Br)cc21,8.61,19.1,9.77,30.8,8.13,–
COc1ccc2c(c1)/C(=C\c1cc(C(=O)c3cc(OC)c(OC)c(OC)c3)ccc1OC)C(=O)N2,0.045,7.94,0.079,0.269,0.095,Activity [6]: 0.43%; Activity [7]: 0.62%; Activity [8]: 73.61%; Activity [9]: 48.01%; Activity [10]: 4.87%; Activity [11]: 0.91%; Activity [12]: 21.69%; Activity [13]: 49.8%; IC50 [14]: 1.23 µM; Activity [15]: 87.7%; Activity [16]: 83.1%; Activity [17]: 0.83%; Activity [18]: 3.52%; Activity [19]: 8.34%; Activity [20]: 18.7%; viability at 0.01 µM [21]: 88.7%; viability at 0.05 µM [22]: 72.8%; Activity [23]: 2.16%; Activity [24]: 4.97%
COc1ccc(C(=O)c2cc(OC)c(OC)c(OC)c2)cc1/C=C1/C(=O)Nc2ccc(F)cc21,0.049,9.71,0.093,0.386,0.186,Activity [6]: 0.35%; Activity [7]: 0.18%; Activity [8]: 50.06%; Activity [9]: 41.27%; Activity [10]: 2.47%; Activity [11]: 1.36%; Activity [12]: 47.12%; Activity [13]: 56.82%; IC50 [14]: 1.01 µM; Activity [15]: 83.8%; Activity [16]: 81%; Activity [17]: 0.98%; Activity [18]: 2.92%; Activity [19]: 9.67%; Activity [20]: 24.46%; viability at 0.01 µM [21]: 86.5%; viability at 0.05 µM [22]: 67.2%; Activity [23]: 2.88%; Activity [24]: 5.42%
C=C(c1ccc(OC)c(/C=C2/C(=O)Nc3cc(Cl)ccc32)c1)c1cc(OC)c(OC)c(OC)c1,2.27,11.4,7.41,11.7,3.23,–
COc1ccc(C(=O)c2cc(OC)c(OC)c(OC)c2)cc1/C=C1/C(=O)Nc2cc(Br)ccc21,3.71,12,4.57,14.7,4.02,–
C=C(c1ccc(OC)c(/C=C2/C(=O)Nc3ccccc32)c1)c1cc(OC)c(OC)c(OC)c1,6.46,25.6,11.4,20.3,7.67,–
C=C(c1ccc(OC)c(/C=C2/C(=O)Nc3ccc(Cl)cc32)c1)c1cc(OC)c(OC)c(OC)c1,4.26,38.9,10.9,15.2,5.62,–
COc1ccc(C(=O)c2cc(OC)c(OC)c(OC)c2)cc1/C=C1/C(=O)Nc2cc(Cl)ccc21,13.4,32.6,11.9,15.9,15.8,–
COc1ccc(C(=O)c2cc(OC)c(OC)c(OC)c2)cc1/C=C1/C(=O)Nc2ccc([N+](=O)[O-])cc21,5.13,35.6,8.91,12.3,6.92,–
C=C(c1ccc(OC)c(/C=C2/C(=O)Nc3ccc([N+](=O)[O-])cc32)c1)c1cc(OC)c(OC)c(OC)c1,1.34,19.5,5.75,13.2,3.71,–
COc1ccc(/C=C\c2cc(OC)c(OC)c(OC)c2)cc1O [COMBRETASTATIN A4],0.049,0.007,0.051,0.046,0.023,Activity [6]: 0.16%; Activity [8]: 51.46%; Activity [10]: 2.62%; Activity [12]: 45.76%; Activity [15]: 84.2%; Activity [17]: 2.93%; Activity [19]: 20.21%; viability at 0.01 µM [21]: 73.4%; Activity [23]: 3.46%
